Target: Neuropeptides B/W receptor type 1 (Homo sapiens) (UniProt P48145)
Assay: human NPBW1 receptor blockade, IC50 – cell-based, fluorescence, dose response, set 5, late-stage follow-up (AID 588566)
Settings: GPR7-expressing cells, fluorescence antagonist assay

Neuropeptides B/W receptor type 1 (Homo sapiens), sequence (P48145 whole entry, looked up): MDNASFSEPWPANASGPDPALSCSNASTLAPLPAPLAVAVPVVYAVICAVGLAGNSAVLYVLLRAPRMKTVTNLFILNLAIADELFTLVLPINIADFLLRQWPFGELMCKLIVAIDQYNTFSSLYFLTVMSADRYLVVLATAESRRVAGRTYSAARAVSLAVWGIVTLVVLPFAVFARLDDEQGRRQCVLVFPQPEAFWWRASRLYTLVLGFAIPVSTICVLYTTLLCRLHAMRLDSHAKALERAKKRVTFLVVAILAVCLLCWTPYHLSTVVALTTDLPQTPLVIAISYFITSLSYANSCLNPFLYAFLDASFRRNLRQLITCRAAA

Row | SMILES | IC50
1 | O=c1c(Oc2ccc3c(c2)CCC3)c(Cl)cnn1Cc1cccc2ccccc12 | 834 nM
2 | COc1ccc(Oc2c(Cl)cnn(C3c4ccccc4Oc4ccccc43)c2=O)cc1 | 3110 nM
3 | CCc1cccc(Oc2c(Cl)cnn(Cc3cccc4ccccc34)c2=O)c1 | 8550 nM
4 | COc1cc(Oc2c(Cl)cnn(Cc3cccc4ccccc34)c2=O)cc(OC)c1OC | 1790 nM
5 | COc1ccc(Oc2c(Cl)cnn(C3=Nc4cc(Cl)ccc4Oc4ncccc43)c2=O)cc1 | 527 nM
6 | COc1ccc(Oc2c(Cl)cnn(-c3nc4ccccc4c(=O)c4ccccc34)c2=O)cc1 | 2210 nM

Reference: PubChem BioAssay AID588566 (The Scripps Research Institute Molecular Screening Center, 2011)
